Values quoted from earlier work in patent US8759404B2, “Intravenous propofol emulsion compositions having preservative efficacy” (Bharat Serums & Vaccines Ltd., priority 2005, dated 2014).

Row | SMILES | Oral LD50 in rats (rats; oral) | solubility in aqueous media (aqueous media) | solubility in fat solvents (chloroform, benzene, ethanol, or acetone) | LD50 (rats; administered orally)
1 | CCCCCCCCCC(=O)O [Capric acid, Decanoic acid] | more than 10,000 mg/kg | – | – | –
2 | CCCCCCCCCCCC(=O)OCC(O)CO (stereo not shown) [Monolaurin, monoglyceryl ester of lauric acid] | – | insoluble | highly soluble | about 53,000 mg/kg body weight
